This is an account of results in patent US8362067B2, “3-aminoalkyl-1,3-dihydro-2H-indol-2-one derivatives, preparation thereof and therapeutic use thereof” (Sanofi, priority 2008, dated 2013).

Structures are written as SMILES. Structures can show the parent of a compound that is named as a salt.

By melting point is commonly meant the temperature, or range, at which the solid turns liquid. As for `COc1cc2c(cc1Cl)C(CCCN1CCN(C)CC1)(c1ccccc1F)C(=O)N2S(=O)(=O)c1ccc(O)cc1` (stereo not shown), the melting point stood at 169 °C. In the case of `COc1cccc(S(=O)(=O)N2C(=O)C(CCCN3CCN(C)CC3)(c3ccccc3F)c3cc(Cl)c(OC)cc32)c1` (stereo not shown) (as salt: HCl) [Compound No. 38], the melting point was 147 °C.

With `COc1cc2c(cc1Cl)C(CCCCCN1CCCCC1)(c1ccccc1F)C(=O)N2S(=O)(=O)c1ccc(OC(C)C)cc1` (stereo not shown) (as salt: HCl), the melting point amounted to 203 °C. As for `COc1cc2c(cc1Cl)C(CCCN1CCNCC1)(c1ccccc1F)C(=O)N2S(=O)(=O)c1ccc(OC)c(OC)c1` (stereo not shown) (as salt: HCl) [compound 19, 5-chloro-1-[(3,4-dimethoxyphenyl)sulfonyl]-3-(2-fluorophenyl)-6-methoxy-3-(3-(piperazin-1-yl)propyl)-1,3-dihydro-2H-indol-2-one], the melting point is 190 °C. As for `COc1ccc(S(=O)(=O)N2C(=O)C(CCCN3CCNCC3)(c3ccccc3F)c3cc(Cl)c(OC)cc32)cc1C` (stereo not shown) (as salt: HCl) [compound 21, 5-chloro-3-(2-fluorophenyl)-6-methoxy-1-[(4-methoxy-3-methylphenyl)sulfonyl]-3-(3-(piperazin-1-yl)propyl)-1,3-dihydro-2H-indol-2-one], the melting point was 234 °C. `CCOc1ccc(S(=O)(=O)N2C(=O)C(CCCN3CCNCC3)(c3ccccc3F)c3cc(Cl)c(OC)cc32)cc1` (stereo not shown) (as salt: HCl) [compound 22, 5-chloro-1-[(4-ethoxyphenyl)sulfonyl]-3-(2-fluorophenyl)-6-methoxy-3-(3-(piperazin-1-yl)propyl)-1,3-dihydro-2H-indol-2-one] gave a melting point of 213 °C. `CCOc1ccc(S(=O)(=O)N2C(=O)C(CCCN3CCC(O)CC3)(c3ccccc3F)c3cc(Cl)c(OC)cc32)cc1OC` (stereo not shown) displayed a melting point of 102 °C. In turn, `COc1cc2c(cc1Cl)C(CCCN1CC[C@H](N)C1)(c1ccccc1F)C(=O)N2S(=O)(=O)c1ccc(OC(C)C)cc1` (stereo partly drawn) (as salt: HCl) [Compound No. 5, 3-{3-[(3S)-3-aminopyrrolidin-1-yl]propyl}-5-chloro-3-(2-fluorophenyl)-1-[(4-isopropoxyphenyl)sulfonyl]-6-methoxy-1,3-dihydro-2H-indol-2-one] gave a melting point of 206 °C.

As for `COc1cc2c(cc1Cl)C(CCCN1CCNCC1)(c1ccccc1F)C(=O)N2S(=O)(=O)c1ccc(O)cc1` (stereo not shown) (as salt: HCl) [Compound No. 46], the melting point amounted to 292 °C. Compound `CCOc1ccc(S(=O)(=O)N2C(=O)C(CCCN3CCOCC3)(c3ccccc3F)c3cc(Cl)c(OC)cc32)cc1OC` (stereo not shown) came in with a melting point of 153 °C. `COc1cc2c(cc1Cl)C(CCCN1CCNCC1)(c1ccccc1F)C(=O)N2S(=O)(=O)c1ccc(C)c(C)c1` (stereo not shown) (as salt: HCl) [compound 20, 5-chloro-1-[(3,4-dimethylphenyl)sulfonyl]-3-(2-fluorophenyl)-6-methoxy-3-(3-(piperazin-1-yl)propyl)-1,3-dihydro-2H-indol-2-one]: the melting point worked out at 192 °C. In the case of `COc1ccc(S(=O)(=O)N2C(=O)C(CCCC3CCNCC3)(c3ccccc3F)c3cc(Cl)c(OC)cc32)c(OC)c1.Cl` (stereo not shown) [Compound No. 2], the melting point came out at 175 °C.

`COc1ccc(S(=O)(=O)N2C(=O)C(CCCC3CCNCC3)(c3ccccc3F)c3cc(Cl)c(OC)cc32)c(OC)c1.Cl` (stereo not shown) [Compound No. 1]: the melting point stood at 163 °C. With `COc1cc2c(cc1Cl)C(CCCN1CCN(C)CC1)(c1cc(CO)ccc1F)C(=O)N2S(=O)(=O)c1ccc(OC(C)C)cc1` (stereo not shown), the melting point was determined as 97 °C. Compound `COc1cc2c(cc1OC)C(CCCN1CCN(C)CC1)(c1ccccc1F)C(=O)N2S(=O)(=O)c1ccc(OC(C)C)c(F)c1` (stereo not shown) had a melting point of 74 °C. Regarding `CCOc1ccc(S(=O)(=O)N2C(=O)C(CCCN3CCC(F)(F)CC3)(c3ccccc3F)c3cc(Cl)c(OC)cc32)cc1OC` (stereo not shown) [compound 9, 5-chloro-3-[3-(4,4-difluoropiperidin-1-yl)propyl]-1-[(4-ethoxy-3-methoxy-phenyl)sulfonyl]-3-(2-fluorophenyl)-6-methoxy-1,3-dihydro-2H-indol-2-one], the melting point was 88 °C. As for `COc1cc2c(cc1F)C(CCCN1CCN(C)CC1)(c1ccccc1F)C(=O)N2S(=O)(=O)c1ccc(OC(C)C)c(F)c1` (stereo not shown), the figure is 72 °C; as for `COC(=O)c1ccc(F)c(C2(CCCN3CCN(C)CC3)C(=O)N(S(=O)(=O)c3ccc(OC(C)C)cc3)c3cc(OC)c(Cl)cc32)c1` (stereo not shown), 100 °C; as for `CCN(CC)C(=O)Nc1ccc(S(=O)(=O)N2C(=O)C(CCCN(C)C)(c3ccccc3F)c3cc(C)c(OC)cc32)cc1C` (stereo not shown), 98 °C. As for `COc1ccc(S(=O)(=O)N2C(=O)C(CCCN3CCNCC3)(c3ccccc3F)c3cc(Cl)c(OC)cc32)c(OC)c1` (stereo not shown) (as salt: HCl) [compound 16, 5-chloro-1-[(2,4-dimethoxyphenyl)sulfonyl]-3-(2-fluorophenyl)-6-methoxy-3-(3-(piperazin-1-yl)propyl)-1,3-dihydro-2H-indol-2-one], the figure is 243 °C; as for `COc1cc2c(cc1Cl)C(CCCN1CCNCC1)(c1ccccc1F)C(=O)N2S(=O)(=O)c1ccc(OC(F)F)cc1` (stereo not shown) (as salt: HCl) [compound 24, 5-chloro-1-{[4-(difluoromethoxy)phenyl]sulfonyl}-3-(2-fluorophenyl)-6-methoxy-3-(3-(piperazin-1-yl)propyl)-1,3-dihydro-2H-indol-2-one], 218 °C.

Turning to `COc1cc2c(cc1Cl)C(CCCN1CCN(C)CC1)(c1ccccc1F)C(=O)N2S(=O)(=O)c1ccc(OC(F)(F)C(F)F)cc1.Cl` (stereo not shown), the melting point stood at 164 °C. Regarding `CCOc1ccc(S(=O)(=O)N2C(=O)C(CCCN3CCNCC3)(c3ccccc3F)c3cc(Cl)c(OC)cc32)cc1OC` (stereo not shown) (as salt: HCl) [compound 18, 5-chloro-1-[(4-ethoxy-3-methoxyphenyl)sulfonyl]-3-(2-fluorophenyl)-6-methoxy-3-(3-(piperazin-1-yl)propyl)-1,3-dihydro-2H-indol-2-one], the melting point stood at 220 °C. `COc1ccc(S(=O)(=O)N2C(=O)C(CCCN3CCNCC3)(c3ccccc3F)c3cc(F)c(OC)cc32)cc1C` (stereo not shown) (as salt: HCl) [compound 107] showed a melting point of 152 °C.

For `CCN(CC)C(=O)Nc1ccc(S(=O)(=O)N2C(=O)C(CCCN(C)C)(c3ccccc3F)c3cc(C)c(OC)cc32)cc1F` (stereo not shown), the melting point is 82 °C. Take `COc1cc2c(cc1C)C(CCCN1CCN(C)CC1)(c1ccccc1F)C(=O)N2S(=O)(=O)c1ccc(OC(C)C)cc1` (stereo not shown): the melting point came out at 70 °C. In turn, `COc1cc2c(cc1Cl)C(CCCCCN(C)C)(c1ccccc1F)C(=O)N2S(=O)(=O)c1ccc(OC(C)C)cc1` (stereo not shown) (as salt: HCl) gave a melting point of 125 °C. The same measure for `CCOc1ccc(S(=O)(=O)N2C(=O)C(CCCN3CC[C@@H](N)C3)(c3ccccc3F)c3cc(Cl)c(OC)cc32)cc1OC` (stereo partly drawn) (as salt: HCl) [Compound No. 6, 3-{3-[(3R)-3-aminopyrrolidin-1-yl]propyl}-5-chloro-1-[(4-ethoxy-3-methoxy-phenyl)sulfonyl]-3-(2-fluorophenyl)-6-methoxy-1,3-dihydro-2H-indol-2-one]: 210 °C. The same measure for `CCOc1ccc(S(=O)(=O)N2C(=O)C(CCCN3CCNCC3)(c3ccccc3F)c3cc(Cl)c(OC)cc32)cc1C` (stereo not shown) (as salt: HCl) [compound 23, 5-chloro-1-[(4-ethoxy-3-methylphenyl)sulfonyl]-3-(2-fluorophenyl)-6-methoxy-3-(3-(piperazin-1-yl)propyl)-1,3-dihydro-2H-indol-2-one]: 226 °C; for `COc1ccc(S(=O)(=O)N2C(=O)C(CCCN3CCNCC3)(c3ccccc3F)c3cc(OC)c(OC)cc32)cc1C` (stereo not shown) (as salt: HCl) [compound 108]: 160 °C; for `COc1cc2c(cc1F)C(CCCN1CCN(C)CC1)(c1ccccc1F)C(=O)N2S(=O)(=O)c1ccc(OC(C)C)cc1` (stereo not shown): 72 °C. Turning to `COc1cc2c(cc1Cl)C(CCCN1CCNCC1)(c1ccccc1F)C(=O)N2S(=O)(=O)c1ccccc1` (stereo not shown) (as salt: HCl) [compound 26, 5-chloro-3-(2-fluorophenyl)-6-methoxy-1-(phenylsulfonyl)-3-(3-(piperazin-1-yl)propyl)-1,3-dihydro-2H-indol-2-one], the melting point was determined as 238 °C. Compound `COc1ccc(S(=O)(=O)N2C(=O)C(CCCN3CCN(C)CC3)(c3ccccc3F)c3cc(OC)c(OC)cc32)cc1C` (stereo not shown) came in with a melting point of 78 °C.

`COc1cc2c(cc1Cl)C(CCCN1CCNCC1)(c1ccccc1F)C(=O)N2S(=O)(=O)c1ccc(OC(F)(F)F)cc1` (stereo not shown) (as salt: HCl) [compound 25, 5-chloro-3-(2-fluorophenyl)-6-methoxy-3-(3-(piperazin-1-yl)propyl)-1-{[4-(tri-fluoromethoxy)phenyl]sulfonyl}-1,3-dihydro-2H-indol-2-one] yielded a melting point of 220 °C. The same measure for `COc1cc2c(cc1Cl)C(CCCN1CCN(C)CC1)(c1ccccc1F)C(=O)N2S(=O)(=O)c1ccc(OC)c(OC)c1` (stereo not shown): 90 °C; for `CCOc1ccc(S(=O)(=O)N2C(=O)C(CCCN3CC[C@H](N)C3)(c3ccccc3F)c3cc(Cl)c(OC)cc32)cc1OC` (stereo partly drawn) (as salt: HCl) [Compound No. 7, 3-{3-[(3S)-3-aminopyrrolidin-1-yl]propyl}-5-chloro-1-[(4-ethoxy-3-methoxy-phenyl)sulfonyl]-3-(2-fluorophenyl)-6-methoxy-1,3-dihydro-2H-indol-2-one]: 238 °C; for `CCCCOc1ccc(S(=O)(=O)N2C(=O)C(CCCN3CCN(C)CC3)(c3ccccc3F)c3cc(Cl)c(OC)cc32)cc1` (stereo not shown) (as salt: HCl): 156 °C. `COc1cc2c(cc1Cl)C(CCCN1CCCN(C)CC1)(c1ccccc1F)C(=O)N2S(=O)(=O)c1ccc(OC(C)C)cc1` (stereo not shown) (as salt: HCl) showed a melting point of 202 °C. In the case of `COc1ccc(S(=O)(=O)N2C(=O)C(CCCN3CCCCC3)(c3ccccc3F)c3cc(Cl)c(OC)cc32)c(OC)c1` (stereo not shown), the melting point was determined as 105 °C. Regarding `COc1ccc(S(=O)(=O)N2C(=O)C(CCCN3CCN(C)CC3)(c3ccccc3F)c3cc(Cl)c(OC)cc32)c(OC)c1` (stereo not shown), the melting point stood at 123 °C.
